Literature values as cited in US20160089381A1, “STABILITY OF PROGESTOGEN FORMULATIONS” (Novo Nordisk HealthCare AG, priority 2003, published 2016).

Test system: endometrium
Conditions: dose equivalent to 1 mg NETA

CC(=O)O[C@]1(C(C)=O)CC[C@H]2[C@@H]3C=C(Cl)C4=CC(=O)[C@@H]5C[C@@H]5[C@]4(C)[C@H]3CC[C@@]21C [cyproterone acetate]
Endometrium transformation dosage: 1 mg

CC(=O)O[C@]1(C(C)=O)CC[C@H]2[C@@H]3C[C@H](C)C4=CC(=O)CC[C@]4(C)[C@H]3CC[C@@]21C [medroxyprogestogen acetate]
Endometrium transformation dosage: 5 mg
